Square brackets hold non-standard residues; d marks the D form. Ends that are not written are not given here. Peptide text beside a SMILES is read from it. * marks the point of attachment. Nicotinoyl = O=C(c1cccnc1)*; βAla = NCCC(=O)O

System in the first series: not listed separately
Description: Stability of niacin-peptides in human serum. Format: in vitro ADME. The settings on record: 100 μg/ml, incubated with human serum for 10 hr. The procedure:
The prepared solutions were introduced into glass vials and kept to stand at 40° C. for 7, 14, 21, 28, 35, 42 and 60 days. […] The present inventors tested stability of niacin-peptides in human serum. Niacin-peptides (nicotinoyl-PS, 100 μg/ml) or niacin-unlinked peptide (PS, 100 μg/ml) was incubated with human serum for 10 hr, and the amount of residual peptides was measured at every hour. According to the result of the comparative stability experiment, when nicotinoyl-PS (nicotinoyl group linked to the N-terminal of PS peptide) was incubated with the serum for 10 hr, the stability of niacin-peptides was 20% higher than the control group (niacin-unlinked peptide).
On to `O=C(O)[C@H](CO)NC(=O)[C@@H]1CCCN1C(=O)c1cccnc1` [nicotinoyl-PS] (Nicotinoyl-Pro-Ser-OH), for which the “stability higher than the control group (niacin-unlinked peptide PS)” value is recorded as 20%.

A further series deals with melanin movement from melanocytes to keratinocytes.
Test: not given
As to conditions: cited from earlier work.
`NC(=O)c1cccnc1` [Niacinamide]: the “decrease of melanin movement from melanocytes to keratinocytes” value is 68%.

Another series concerns B16F10 melanocytes. Kind of series: Screening of niacin-peptides: inhibition of melanogenesis against α-MSH. Format: cell-based, mouse. Also noted: key: relative to absorbance (490 nm) of α-MSH-only positive control. The settings on record: 20 μg/ml α-MSH plus 10 ng/ml peptide, 3 days, UV 490 nm, α-MSH-only positive control as standard. As for the experimental part:
The present inventors screened skin whitening peptides by measuring decrease in melanogenesis using the niacin-peptide libraries prepared in Example 1. B16F10 melanocytes (the Korean Cell Line Bank) were incubated with α-MSH to induce melanogenesis and the inhibition of melanogenesis by the peptide libraries was analyzed. The mouse melanocytes were cultured at 37° C. in 5% CO2 atmosphere in DMEM supplemented with 10% FBS. The cells were seeded in each well of a 96-well plate (5×10^4 cells/well) and their attachment was verified. Afterwards, the control group was incubated with only solvent, the positive control group was incubated with 20 μg/ml of α-MSH and the other wells was incubated with 20 μg/ml of α-MSH and 10 ng/ml of peptides for 3 days.
The inhibition rates of melanogenesis by treatment of each peptide prepared in Example 1 were measured at UV 490 nm. The inhibition rates were calculated using the absorbance value of the positive control group incubated with only α-MSH as a standard, which are summarized in Table 1. The candidate peptides analyzed to show excellent screening results were selected and synthesized in a 100-μmole scale for further experiments. FIG. 1 represents the screening result of niacin-peptides.
Turning to nicotinoyl-GRKG (Nicotinoyl-GRKG), the “Screening value: Inhibition of melanogenesis against α-MSH” value (“Screening value: Inhibition” below) came to 0.93.

With nicotinoyl-FWY (Nicotinoyl-Phe-Trp-Tyr), the “Screening value: Inhibition” value came to 0.61.

Regarding nicotinoyl-KLAKK (Nicotinoyl-KLAKK), the “Screening value: Inhibition” value came to 0.96.

nicotinoyl-TYR (Nicotinoyl-Thr-Tyr-Arg): the “Screening value: Inhibition” value was 0.72.

For nicotinoyl-VPAA (Nicotinoyl-VPAA), the “Screening value: Inhibition” value came to 0.85.

As to “nicotinoyl-PLG-NH2 (Nicotinoyl-Pro-Leu-Gly-NH2; SMILES CC(C)C[C@H](NC(=O)[C@@H]1CCCN1C(=O)c1cccnc1)C(=O)NCC(N)=O)”, the “Screening value: Inhibition” value came to 0.92.

Take nicotinoyl-KVK (Nicotinoyl-Lys-Val-Lys): the “Screening value: Inhibition” value is recorded as 1.01.

With nicotinoyl-YGY (Nicotinoyl-Tyr-Gly-Tyr), the “Screening value: Inhibition” value was 0.69.

As for nicotinoyl-YGYTGA (Nicotinoyl-YGYTGA), the “Screening value: Inhibition” value was found to be 0.95.

For the compound “nicotinoyl-EEMQRR-NH2 (Nicotinoyl-EEMQRR-NH2; SMILES CSCC[C@H](NC(=O)[C@H](CCC(=O)O)NC(=O)[C@H](CCC(=O)O)NC(=O)c1cccnc1)C(=O)N[C@@H](CCC(N)=O)C(=O)N[C@@H](CCCNC(=N)N)C(=O)N[C@@H](CCCNC(=N)N)C(N)=O)”, the “Screening value: Inhibition” value stood at 0.86.

Consider nicotinoyl-KVARP (Nicotinoyl-KVARP), for which the “Screening value: Inhibition” value came to 0.96.

Consider nicotinoyl-VEPIPY (Nicotinoyl-VEPIPY), for which the “Screening value: Inhibition” value amounted to 0.81.

For the compound nicotinoyl-RKDVY (Nicotinoyl-RKDVY), the “Screening value: Inhibition” value came out at 0.87.

Regarding nicotinoyl-SSNA (Nicotinoyl-SSNA), the “Screening value: Inhibition” value was 0.71.

In the case of nicotinoyl-NP, the “Screening value: Inhibition” value amounted to 0.8.

On to nicotinoyl-YGGFL, for which the “Screening value: Inhibition” value is 0.78.

As to nicotinoyl-DKYV, the “Screening value: Inhibition” value was 0.87.

On to nicotinoyl-AHK (Nicotinoyl-Ala-His-Lys), for which the “Screening value: Inhibition” value stood at 0.8.

On to nicotinoyl-ISELGW (Nicotinoyl-ISELGW), for which the “Screening value: Inhibition” value amounted to 0.64.

On to nicotinoyl-YGGFM (Nicotinoyl-YGGFM), for which the “Screening value: Inhibition” value is 0.81.

Turning to nicotinoyl-GHR (Nicotinoyl-Gly-His-Arg), the “Screening value: Inhibition” value is 0.75.

As to nicotinoyl-GEPG (Nicotinoyl-GEPG), the “Screening value: Inhibition” value stood at 0.96.

In the case of nicotinoyl-SIKVAV (Nicotinoyl-SIKVAV), the “Screening value: Inhibition” value is recorded as 0.72.

As to nicotinoyl-KRGDR (Nicotinoyl-KRGDR), the “Screening value: Inhibition” value came out at 0.92.

In the case of nicotinoyl-VGVAPG (Nicotinoyl-VGVAPG), the “Screening value: Inhibition” value was 0.95.

In the case of nicotinoyl-GPQGPQ (Nicotinoyl-GPQGPQ), the “Screening value: Inhibition” value worked out at 0.88.

For “nicotinoyl-beta-AHSH (Nicotinoyl-[βAla]HSH)”, the “Screening value: Inhibition” value stood at 0.82.

As to “nicotinoyl-YPFF-NH2 (Nicotinoyl-YPFF-NH2; SMILES NC(=O)[C@H](Cc1ccccc1)NC(=O)[C@H](Cc1ccccc1)NC(=O)[C@@H]1CCCN1C(=O)[C@H](Cc1ccc(O)cc1)NC(=O)c1cccnc1)”, the “Screening value: Inhibition” value came to 0.85.

For the compound nicotinoyl-KTTKS (Nicotinoyl-KTTKS), the “Screening value: Inhibition” value turned out to be 0.92.

Take nicotinoyl-KRGKP (Nicotinoyl-KRGKP): the “Screening value: Inhibition” value worked out at 0.84.

Take nicotinoyl-KAKA (Nicotinoyl-KAKA): the “Screening value: Inhibition” value stood at 0.87.

In the case of nicotinoyl-YT, the “Screening value: Inhibition” value was 0.75.

As for “nicotinoyl-GPRPA-NH2 (Nicotinoyl-GPRPA-NH2; SMILES C[C@H](NC(=O)[C@@H]1CCCN1C(=O)[C@H](CCCNC(=N)N)NC(=O)[C@@H]1CCCN1C(=O)CNC(=O)c1cccnc1)C(N)=O)”, the “Screening value: Inhibition” value is recorded as 0.7.

As to nicotinoyl-GPHyp, the “Screening value: Inhibition” value was determined as 0.89.

On to nicotinoyl-GQPR (Nicotinoyl-GQPR), for which the “Screening value: Inhibition” value worked out at 0.83.

In a further series the test system is B16F10 cells. Kind of series: Skin whitening effect: melanogenesis at various concentrations in α-MSH-treated melanocytes. As to conditions: 1, 10, 100 and 250 μg/ml, 3 days. Type of series: cell-based, mouse. As for the experimental part: Cells were treated with various concentrations of niacin-peptide, followed by measuring activity in inhibition of melanogenesis. The mouse melanocytes were cultured at 37° C. in 5% CO2 atmosphere in DMEM supplemented with 10% FBS. The cells were seeded in each well of a 24-well plate (1×10^5 cells/well) and their attachment was verified. Cells were incubated with each test group for 3 days: (a) only solvent as negative control; (b) 20 μg/ml α-MSH as a positive control; (c) 20 μg/ml α-MSH plus 1, 10, 100 and 250 μg/ml niacin-peptides (NA-PG, NAPS, NA-ET and NA-VS); (d) 1, 10, 100 and 250 μg/ml arbutin; and (e) 1, 10, 100 and 250 μg/ml AA2G.
FIG. 5 is images of melanocytes representing treatment effects of NA-PS and PS peptides on melanogenesis decrease rate in a concentration dependent manner.
For analyzing the release amount of melanin, the absorbance values of the culture medium were measured at 490 nm.
As to `OC[C@H]1O[C@@H](Oc2ccc(O)cc2)[C@H](O)[C@@H](O)[C@@H]1O` [arbutin], the “cell number compared with the α-MSH treated group” value is on record as “significantly decreased”.

The values are drawn from patent US9456972B2, “Niacin-peptide having skin whitening activity and use for same” (priority 2011, dated 2016).
